Measurements published in US20240269139A1, “COMPOUNDS FOR TARGETED PROTEIN DEGRADATION OF KINASES” (DANA-FARBER CANCER INSTITUTE, INC., priority 2020, published 2024).
Where “and” joins values, the source holds several entries; their conditions need not be identical. Equal values may be shown once. Read-outs that look alike come from different tables or passages of the source.

Legend:
Assay type in all cases: cell-based
[1] = target: protein kinases (human kinome) (Homo sapiens, UniProt Q16539); details: for logFC of MAPK14: Accession Q16539; for logFC MAPK14: MAPK14, accession Q16539, direction of change down
[2] = target: protein kinases (human kinome) (Homo sapiens, UniProt P51812); details: RPS6KA3 (P51812)
[3] = target: protein kinases (human kinome) (Homo sapiens, UniProt P45984)
[4] = target: protein kinases (human kinome) (Homo sapiens, UniProt P42684); details: for logFC: ABL2 (P42684) protein abundance, degrader vs DMSO, down
[5] = target: protein kinases (human kinome) (Homo sapiens, UniProt P07947); details: YES1 (P07947)
[6] = target: protein kinases (human kinome) (Homo sapiens, UniProt Q07912); details: for logFC TNK2 (Q07912-1): direction down; for logFC TNK2: TNK2 (Q07912-1)
[7] = target: protein kinases (human kinome) (Homo sapiens, UniProt Q8NI60)
[8] = target: protein kinases (human kinome) (Homo sapiens, UniProt Q15119); details: for logFC PDK2: Accession Q15119-1
[9] = target: T1, protein kinases (human kinome) (Homo sapiens, UniProt Q9UEE5); details: STK17A Q9UEE5; experiment wp137
T1 sequence (Q9UEE5 1-414): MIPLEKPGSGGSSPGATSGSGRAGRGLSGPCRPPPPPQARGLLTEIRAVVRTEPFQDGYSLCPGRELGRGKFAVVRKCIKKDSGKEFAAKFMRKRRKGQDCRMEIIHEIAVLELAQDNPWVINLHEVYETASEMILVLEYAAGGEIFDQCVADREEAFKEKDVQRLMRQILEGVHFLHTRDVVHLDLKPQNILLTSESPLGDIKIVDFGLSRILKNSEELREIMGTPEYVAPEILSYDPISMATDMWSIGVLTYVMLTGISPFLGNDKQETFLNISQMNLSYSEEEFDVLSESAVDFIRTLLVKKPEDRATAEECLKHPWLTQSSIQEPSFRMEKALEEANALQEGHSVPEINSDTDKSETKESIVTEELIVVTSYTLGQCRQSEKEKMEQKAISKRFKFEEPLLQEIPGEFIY

[10] = target: protein kinases (human kinome) (Homo sapiens, UniProt Q14004); details: for logFC CDK13: Accession Q14004-1
[11] = target: protein kinases (human kinome) (Homo sapiens, UniProt P24941)
[12] = target: protein kinases (human kinome) (Homo sapiens, UniProt Q15118); details: PDK1 Q15118
[13] = MAPK14 (Q16539) protein abundance, degrader vs DMSO, down
[14] = MAPK14 (Q16539), experiment wp107
[15] = MAPK14 (Q16539), experiment wp172
[16] = MAPK9 P45984-1, experiment wp045
[17] = MAPK9 P45984-1, experiment wp103
[18] = MAPK9 P45984-1, experiment wp105
[19] = MAPK9 P45984-1, experiment wp107
[20] = MAPK9 P45984-1, experiment wp114
[21] = MAPK9 P45984-1, experiment wp117
[22] = MAPK9 P45984-1, experiment wp160, 2 hr
[23] = MAPK9 P45984-1, experiment wp160, 4 hr
[24] = MAPK9 P45984-1, experiment wp160, 8 hr
[25] = MAPK9 P45984-1, experiment wp172
[26] = experiment wp172, direction down
[27] = MAPK9 P45984-1, experiment wp168
[28] = experiment wp131, direction down

Chain of protein kinases (human kinome) (Homo sapiens, UniProt Q14004) (Q14004 whole entry): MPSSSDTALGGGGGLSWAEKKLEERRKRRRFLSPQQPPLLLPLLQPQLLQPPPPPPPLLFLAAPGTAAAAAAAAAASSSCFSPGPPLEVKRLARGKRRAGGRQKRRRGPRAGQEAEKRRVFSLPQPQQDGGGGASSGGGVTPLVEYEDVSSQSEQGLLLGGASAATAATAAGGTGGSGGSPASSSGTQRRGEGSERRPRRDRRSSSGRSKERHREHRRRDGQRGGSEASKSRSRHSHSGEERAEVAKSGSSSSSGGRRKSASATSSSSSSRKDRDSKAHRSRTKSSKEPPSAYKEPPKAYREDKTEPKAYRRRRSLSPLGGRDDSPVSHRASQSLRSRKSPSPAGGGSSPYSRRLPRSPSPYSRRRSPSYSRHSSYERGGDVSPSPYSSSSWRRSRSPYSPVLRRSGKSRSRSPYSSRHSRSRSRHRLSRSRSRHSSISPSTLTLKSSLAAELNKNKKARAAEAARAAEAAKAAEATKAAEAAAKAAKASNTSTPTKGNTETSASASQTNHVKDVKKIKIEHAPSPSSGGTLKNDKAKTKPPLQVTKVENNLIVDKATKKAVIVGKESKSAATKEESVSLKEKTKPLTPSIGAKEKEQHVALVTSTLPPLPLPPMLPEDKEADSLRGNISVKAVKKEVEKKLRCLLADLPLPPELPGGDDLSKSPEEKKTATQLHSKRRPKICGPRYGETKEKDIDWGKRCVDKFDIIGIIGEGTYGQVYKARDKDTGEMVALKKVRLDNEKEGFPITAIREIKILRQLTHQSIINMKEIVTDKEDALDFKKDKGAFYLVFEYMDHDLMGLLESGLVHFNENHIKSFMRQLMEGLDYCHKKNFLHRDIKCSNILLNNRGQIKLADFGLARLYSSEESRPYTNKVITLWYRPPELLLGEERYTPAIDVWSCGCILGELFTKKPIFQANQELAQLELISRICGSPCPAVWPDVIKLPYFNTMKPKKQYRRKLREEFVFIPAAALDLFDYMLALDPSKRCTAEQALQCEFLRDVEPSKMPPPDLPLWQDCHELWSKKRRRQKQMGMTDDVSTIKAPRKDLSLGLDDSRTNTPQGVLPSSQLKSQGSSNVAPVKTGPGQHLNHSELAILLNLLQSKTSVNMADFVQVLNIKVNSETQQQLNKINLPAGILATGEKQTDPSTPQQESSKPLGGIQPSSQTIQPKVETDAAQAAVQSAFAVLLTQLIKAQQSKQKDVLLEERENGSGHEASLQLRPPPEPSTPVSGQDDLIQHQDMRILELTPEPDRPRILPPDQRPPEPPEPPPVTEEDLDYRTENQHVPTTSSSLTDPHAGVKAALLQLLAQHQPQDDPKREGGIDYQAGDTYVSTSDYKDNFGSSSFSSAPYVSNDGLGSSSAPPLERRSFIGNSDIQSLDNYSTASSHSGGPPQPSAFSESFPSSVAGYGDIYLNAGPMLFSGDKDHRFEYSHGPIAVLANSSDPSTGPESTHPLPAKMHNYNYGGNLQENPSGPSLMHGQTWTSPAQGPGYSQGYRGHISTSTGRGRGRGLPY
Chain of protein kinases (human kinome) (Homo sapiens, UniProt P51812) (P51812 whole entry): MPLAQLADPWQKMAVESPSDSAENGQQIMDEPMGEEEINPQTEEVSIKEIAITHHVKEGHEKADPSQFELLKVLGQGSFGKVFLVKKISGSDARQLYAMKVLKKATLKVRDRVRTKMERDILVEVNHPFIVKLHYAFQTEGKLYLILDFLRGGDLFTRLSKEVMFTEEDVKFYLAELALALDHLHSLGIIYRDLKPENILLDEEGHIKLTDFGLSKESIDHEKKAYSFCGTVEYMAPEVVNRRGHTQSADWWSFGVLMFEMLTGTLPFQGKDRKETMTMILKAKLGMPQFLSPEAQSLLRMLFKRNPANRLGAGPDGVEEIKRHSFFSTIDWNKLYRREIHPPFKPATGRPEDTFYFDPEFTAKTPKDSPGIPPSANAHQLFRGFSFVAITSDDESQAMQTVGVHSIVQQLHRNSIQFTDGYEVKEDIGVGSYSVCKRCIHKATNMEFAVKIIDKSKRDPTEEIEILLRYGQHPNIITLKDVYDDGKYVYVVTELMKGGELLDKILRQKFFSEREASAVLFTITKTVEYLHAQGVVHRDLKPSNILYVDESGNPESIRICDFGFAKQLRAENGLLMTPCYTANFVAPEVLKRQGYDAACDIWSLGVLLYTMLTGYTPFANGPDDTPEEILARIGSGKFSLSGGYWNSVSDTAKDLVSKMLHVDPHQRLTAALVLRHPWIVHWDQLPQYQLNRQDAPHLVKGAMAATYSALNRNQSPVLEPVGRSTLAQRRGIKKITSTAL
Chain of protein kinases (human kinome) (Homo sapiens, UniProt P07947) (P07947 whole entry): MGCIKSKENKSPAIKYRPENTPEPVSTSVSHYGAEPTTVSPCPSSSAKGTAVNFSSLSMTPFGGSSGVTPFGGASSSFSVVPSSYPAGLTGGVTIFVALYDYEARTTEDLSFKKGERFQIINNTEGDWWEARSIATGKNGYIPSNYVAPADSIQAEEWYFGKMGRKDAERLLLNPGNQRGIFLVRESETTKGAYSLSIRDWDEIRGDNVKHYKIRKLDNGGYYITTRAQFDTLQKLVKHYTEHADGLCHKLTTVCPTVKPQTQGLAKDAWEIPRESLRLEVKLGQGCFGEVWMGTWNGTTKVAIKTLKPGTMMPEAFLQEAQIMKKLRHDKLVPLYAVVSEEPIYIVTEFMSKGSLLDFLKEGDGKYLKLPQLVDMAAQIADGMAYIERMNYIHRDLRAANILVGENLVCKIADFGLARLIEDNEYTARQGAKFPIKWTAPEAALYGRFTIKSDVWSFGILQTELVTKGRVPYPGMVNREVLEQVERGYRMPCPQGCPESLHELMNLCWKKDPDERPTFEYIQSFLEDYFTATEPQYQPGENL
Chain of protein kinases (human kinome) (Homo sapiens, UniProt Q07912) (Q07912 whole entry): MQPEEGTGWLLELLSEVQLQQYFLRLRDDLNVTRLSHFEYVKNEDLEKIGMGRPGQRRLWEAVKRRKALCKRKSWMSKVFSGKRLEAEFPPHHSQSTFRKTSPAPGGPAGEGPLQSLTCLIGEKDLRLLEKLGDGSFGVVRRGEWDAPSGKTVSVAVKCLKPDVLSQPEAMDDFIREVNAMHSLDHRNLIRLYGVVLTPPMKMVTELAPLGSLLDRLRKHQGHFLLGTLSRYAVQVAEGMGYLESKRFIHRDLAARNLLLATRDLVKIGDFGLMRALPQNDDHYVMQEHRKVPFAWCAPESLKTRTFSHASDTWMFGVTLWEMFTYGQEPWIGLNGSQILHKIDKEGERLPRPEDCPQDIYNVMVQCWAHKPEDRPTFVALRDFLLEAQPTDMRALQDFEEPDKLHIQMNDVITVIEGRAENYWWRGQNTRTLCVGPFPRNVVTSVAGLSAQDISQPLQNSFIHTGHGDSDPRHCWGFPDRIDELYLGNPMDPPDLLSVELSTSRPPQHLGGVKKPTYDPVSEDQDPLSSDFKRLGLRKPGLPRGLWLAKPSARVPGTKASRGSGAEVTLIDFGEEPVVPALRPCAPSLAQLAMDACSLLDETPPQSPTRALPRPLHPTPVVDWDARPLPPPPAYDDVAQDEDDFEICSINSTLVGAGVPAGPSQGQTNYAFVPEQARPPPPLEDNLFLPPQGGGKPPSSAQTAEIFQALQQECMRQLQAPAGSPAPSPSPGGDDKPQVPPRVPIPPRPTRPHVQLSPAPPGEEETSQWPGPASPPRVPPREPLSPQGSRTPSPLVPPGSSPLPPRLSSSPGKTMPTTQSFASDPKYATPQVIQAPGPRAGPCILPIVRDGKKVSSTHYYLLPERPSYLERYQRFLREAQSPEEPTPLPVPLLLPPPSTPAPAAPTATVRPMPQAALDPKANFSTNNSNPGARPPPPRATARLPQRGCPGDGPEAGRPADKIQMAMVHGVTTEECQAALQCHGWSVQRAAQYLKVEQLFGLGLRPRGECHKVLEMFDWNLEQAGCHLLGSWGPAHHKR
Chain of protein kinases (human kinome) (Homo sapiens, UniProt Q8NI60) (Q8NI60 163-647): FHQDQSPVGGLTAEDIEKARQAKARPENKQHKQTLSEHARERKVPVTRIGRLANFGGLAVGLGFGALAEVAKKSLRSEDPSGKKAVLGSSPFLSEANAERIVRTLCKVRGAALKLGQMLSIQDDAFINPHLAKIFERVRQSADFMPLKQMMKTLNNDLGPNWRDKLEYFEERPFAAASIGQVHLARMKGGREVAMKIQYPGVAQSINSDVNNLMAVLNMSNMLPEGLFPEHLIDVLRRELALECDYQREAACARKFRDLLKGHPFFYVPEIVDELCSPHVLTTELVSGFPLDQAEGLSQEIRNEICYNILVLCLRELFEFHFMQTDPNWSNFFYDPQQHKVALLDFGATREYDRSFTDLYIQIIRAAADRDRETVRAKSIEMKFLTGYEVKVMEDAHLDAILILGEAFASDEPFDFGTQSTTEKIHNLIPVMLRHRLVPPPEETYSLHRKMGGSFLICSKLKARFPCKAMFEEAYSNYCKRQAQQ
Chain of protein kinases (human kinome) (Homo sapiens, UniProt Q16539) (Q16539 whole entry): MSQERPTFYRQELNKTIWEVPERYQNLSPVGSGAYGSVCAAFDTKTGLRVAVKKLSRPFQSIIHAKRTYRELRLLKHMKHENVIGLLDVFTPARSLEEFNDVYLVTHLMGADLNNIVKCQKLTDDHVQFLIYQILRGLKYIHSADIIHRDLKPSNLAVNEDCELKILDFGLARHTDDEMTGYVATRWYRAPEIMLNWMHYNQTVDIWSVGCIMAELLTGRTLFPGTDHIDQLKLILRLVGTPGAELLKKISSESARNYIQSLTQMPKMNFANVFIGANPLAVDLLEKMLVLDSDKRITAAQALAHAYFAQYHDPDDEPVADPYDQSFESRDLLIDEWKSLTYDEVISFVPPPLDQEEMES

Cc1ccc(NC(=O)c2cccc(C(F)(F)F)c2)cc1N1Cc2cnc(Nc3ccc(N4CCN(Cc5cn(CCCCCOc6cccc7c6C(=O)N(C6CCC(=O)NC6=O)C7=O)nn5)CC4)nc3)nc2N(C)C1=O (stereo not shown) [DB0646, N-(3-(7-((6-(4-((1-(5-((2-(2,6-Dioxopiperidin-3-yl)-1,3-dioxoisoindolin-4-yl)oxy)pentyl)-1H-1,2,3-triazol-4-yl)methyl)piperazin-1-v)pyridin-3-yl)amino)-1-methyl-2-oxo-1,4-dihydropyrimido[4,5-d]pyrimidin-3(2H)-yl)-4-methylphenyl)-3-(trifluoromethyl)benzamide]
logFC of MAPK14 ([1]; experiment wp172): −0.6469
logFC [1, 13]: −0.7793 and −0.6013
logFC [1, 14]: −0.7601
logFC ([1]; MAPK14 (Q16539), experiment wp114): −0.5814
logFC ([1]; MAPK14 (Q16539), experiment wp117): −0.6392
logFC ([1]; MAPK14 (Q16539), experiment wp152): −0.7821
logFC ([1]; MAPK14 (Q16539), experiment wp160, 2 hr): −0.4404
logFC ([1]; MAPK14 (Q16539), experiment wp160, 4 hr): −0.7162
logFC ([1]; MAPK14 (Q16539), experiment wp160, 8 hr): −1.153
logFC [1, 15]: −0.6469
logFC MAPK14 ([1]; experiment wp045): −0.7793
logFC MAPK14 ([1]; experiment wp103): −0.6013
logFC MAPK14 ([1]; experiment wp107): −0.7601
logFC MAPK14 ([1]; experiment wp114): −0.5814
logFC MAPK14 ([1]; experiment wp117): −0.6392
logFC MAPK14 ([1]; experiment wp152): −0.7821
logFC MAPK14 ([1]; experiment wp160, 2 hr): −0.4404
logFC MAPK14 ([1]; experiment wp160, 4 hr): −0.7162
logFC MAPK14 ([1]; experiment wp160, 8 hr): −1.153
logFC ([2]; experiment wp160, 8 hr): −0.3332
logFC ([2]; experiment wp160, 8 hr, direction down): −0.3332
logFC MAPK9 (P45984) ([3]; Experiment wp152, direction of change down): −2.161
logFC [3, 16]: −1.344
logFC MAPK9 [3, 16]: −1.344
logFC [3, 17]: −1.045
logFC MAPK9 [3, 17]: −1.045
logFC [3, 18]: −0.929
logFC MAPK9 [3, 18]: −0.929
logFC [3, 19]: −1.414
logFC MAPK9 [3, 19]: −1.414
logFC [3, 20]: −0.5078
logFC MAPK9 [3, 20]: −0.5078
logFC [3, 21]: −1.488
logFC MAPK9 [3, 21]: −1.488
logFC [3, 22]: −0.7555
logFC MAPK9 [3, 22]: −0.7555
logFC [3, 23]: −1.498
logFC MAPK9 [3, 23]: −1.498
logFC [3, 24]: −2.137
logFC MAPK9 [3, 24]: −2.137
logFC [3, 25]: −0.8343
logFC MAPK9 [3, 25]: −0.8343
logFC MAPK9 ([3]; MAPK9 P45984, experiment wp152): −2.161
logFC ([4]; 4 hr): −0.5029
logFC ([4]; 8 hr): −0.7288
logFC [4]: −0.5941 and −0.5342 and −0.5362
logFC ABL2 (P42684) ([4]; Experiment wp045): −0.5941
logFC ABL2 (P42684) ([4]; Experiment wp107): −0.5342
logFC ABL2 (P42684) ([4]; experiment wp152): −0.5362
logFC ABL2 (P42684) ([4]; experiment wp160, 4 hr): −0.5029
logFC ABL2 (P42684) ([4]; experiment wp160, 8 hr): −0.7288
logFC ([5]; experiment wp105): −0.3957
logFC ([5]; experiment wp105, direction down): −0.3957
logFC ([5]; experiment wp172): −0.471
logFC [5, 26]: −0.471

Cc1ccc(NC(=O)c2cccc(C(F)(F)F)c2)cc1N1Cc2cnc(Nc3ccc(N4CCN(CCCCC(=O)N[C@H](C(=O)N5C[C@H](O)C[C@H]5C(=O)N[C@@H](C)c5ccc(-c6scnc6C)cc5)C(C)(C)C)CC4)nc3)nc2N(C)C1=O [DB1113]
logFC of MAPK14 ([1]; experiment wp168): −1.73
logFC ([1]; MAPK14 (Q16539), experiment wp168): −1.73
logFC ([2]; experiment wp168): −0.5079
logFC ([2]; experiment wp168, direction down): −0.5079
logFC [3, 27]: −1.216
logFC MAPK9 [3, 27]: −1.216
logFC [4]: −1.723
logFC ABL2 (P42684) ([4]; Experiment wp168): −1.723
logFC TNK2 (Q07912-1) ([6]; Experiment wp168): −0.5351
logFC TNK2 ([6]; experiment wp168): −0.5351

CC(C)S(=O)(=O)c1ccccc1Nc1nc(Nc2ccc(N3CCN(CCOCCOCCNC(=O)CNc4cccc5c4C(=O)N(C4CCC(=O)NC4=O)C5=O)CC3)cc2)ncc1Cl (stereo not shown) [TL12.186]
logFC COQ8A (Q8N160-1) ([7]; experiment wp137): −0.4564
logFC COQ8A (Q8NI60-1) ([7]; experiment wp137): −0.4564
logFC PDK2 ([8]; experiment wp137): −0.5022
logFC PDK2 (Q15119-1) ([8]; experiment wp137): −0.5022
logFC [9]: −0.5054
logFC STK17A [9]: −0.5054
logFC CDK13 ([10]; experiment wp016): −0.5885
logFC CDK13 ([10]; experiment wp131): −0.7903
logFC CDK13 ([10]; experiment wp137): −0.7062
logFC ([10]; CDK13 (Q14004-1), experiment wp016): −0.5885
logFC CDK13 (Q14004-1) ([10]; experiment wp131): −0.7903
logFC CDK13 (Q14004-1) ([10]; experiment wp137): −0.7062
logFC [4]: −0.803
logFC ABL2 (P42684) ([4]; experiment wp137): −0.803
logFC TNK2 (Q07912-1) ([6]; Experiment wp131): −2.251
logFC TNK2 (Q07912-1) ([6]; Experiment wp137): −1.575
logFC TNK2 ([6]; experiment wp131): −2.251
logFC TNK2 ([6]; experiment wp137): −1.575
logFC CDK2 (P24941-1) ([11]; experiment wp016): −0.5971
logFC CDK2 (P24941-1) ([11]; experiment wp016, direction of change down): −0.5971
logFC CDK2 (P24941-1) ([11]; experiment wp131): −0.98
logFC CDK2 (P24941-1) ([11]; experiment wp131, direction of change down): −0.98
logFC CDK2 (P24941-1) ([11]; experiment wp137): −0.9162
logFC CDK2 (P24941-1) ([11]; experiment wp137, direction of change down): −0.9162
logFC ([5]; experiment wp131): −0.5437
logFC [5, 28]: −0.5437

Cn1c(=O)c(-c2c(Cl)cccc2Cl)cc2cnc(Nc3ccc(OCCNC(=O)CCCCCCNC(=O)COc4cccc5c4C(=O)N(C4CCC(=O)NC4=O)C5=O)cc3)nc21 (stereo not shown) [SB1.G.192.1]
logFC [1, 13]: −0.8915 and −0.7293
logFC ([1]; MAPK14 (Q16539), experiment wp131): −0.7463
logFC MAPK14 ([1]; experiment wp071): −0.8915
logFC MAPK14 ([1]; experiment wp081): −0.7293
logFC MAPK14 ([1]; experiment wp131): −0.7463
logFC ([12]; experiment wp081): −0.3388
logFC PDK1 ([12]; experiment wp081): −0.3388
logFC [4]: −2.44
logFC ABL2 (P42684) ([4]; experiment wp071): −2.44
logFC TNK2 (Q07912-1) ([6]; Experiment wp131): −1.488
logFC TNK2 ([6]; experiment wp131): −1.488
logFC ([5]; experiment wp131): −1.244
logFC [5, 28]: −1.244

Cc1ccc(C(=O)Nc2ccc(CN3CCN(CCCOCCOCCOCCNC(=O)COc4cccc5c4C(=O)N(C4CCC(=O)NC4=O)C5=O)CC3)c(C(F)(F)F)c2)cc1C#Cc1cnc2cccnn12 (stereo not shown) [SB1.G.187]
logFC COQ8A (Q8N160-1) ([7]; experiment wp056): −0.3885
logFC COQ8A (Q8NI60-1) ([7]; experiment wp056): −0.3885
logFC PDK2 ([8]; experiment wp056): −0.4016
logFC PDK2 (Q15119-1) ([8]; experiment wp056): −0.4016
logFC of MAPK14 ([1]; experiment wp172): −0.5198
logFC ([1]; MAPK14 (Q16539), experiment wp103): −0.83
logFC [1, 14]: −0.924
logFC [1, 15]: −0.5198
logFC MAPK14 ([1]; experiment wp103): −0.83
logFC MAPK14 ([1]; experiment wp107): −0.924
logFC ([12]; experiment wp056): −0.4134
logFC PDK1 ([12]; experiment wp056): −0.4134
logFC [4]: −0.6252 and −0.6455
logFC ABL2 (P42684) ([4]; Experiment wp107): −0.6455
logFC ABL2 (P42684) ([4]; experiment wp056): −0.6252
logFC ([5]; experiment wp172): −0.5324
logFC [5, 26]: −0.5324
